# Reference: US20240115578A1, “DRUG COMPOSITION FOR TREATING PEDIATRIC CANCERS” (CHUGAI SEIYAKU KABUSHIKI KAISHA, priority 2021, published 2024)
# How the values were obtained:
# [1] = target: T1, CYP2C8 (Homo sapiens, UniProt P10632); test: Competitive CYP2C8 inhibition; format: biochemical; conditions: PBPK input
# T1 sequence (P10632 1-490): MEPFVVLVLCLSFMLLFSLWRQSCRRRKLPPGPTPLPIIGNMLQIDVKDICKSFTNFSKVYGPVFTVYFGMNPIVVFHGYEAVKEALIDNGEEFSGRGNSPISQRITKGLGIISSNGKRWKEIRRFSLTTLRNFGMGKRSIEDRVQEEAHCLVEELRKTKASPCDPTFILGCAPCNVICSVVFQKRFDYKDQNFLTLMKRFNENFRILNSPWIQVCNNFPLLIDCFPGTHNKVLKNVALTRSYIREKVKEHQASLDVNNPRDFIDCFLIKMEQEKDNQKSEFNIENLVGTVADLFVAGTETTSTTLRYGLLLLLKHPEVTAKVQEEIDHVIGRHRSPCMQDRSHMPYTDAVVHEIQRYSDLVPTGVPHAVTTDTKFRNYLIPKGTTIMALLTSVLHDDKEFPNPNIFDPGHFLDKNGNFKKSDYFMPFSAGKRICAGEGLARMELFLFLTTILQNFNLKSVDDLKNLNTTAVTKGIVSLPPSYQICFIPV
# Excerpt: (§1) The PBPK model was constructed by combining alectinib-specific physicochemical information (molecular weight, logP, pKa, etc.), and the in vitro and in vivo study results obtained so far, with the physiological information on the target population in the SimCYP (registered trademark) software (Certara, Sheffield, UK) (Table 2).
# [2] = target: T2, CYP3A4 (Homo sapiens, UniProt P08684); test: Mechanism-based CYP3A4 inhibition; format: biochemical; conditions: PBPK input; read-out: Mechanism-based inhibitor CYP3A4 inhibition Ki
# T2 sequence (P08684 whole entry): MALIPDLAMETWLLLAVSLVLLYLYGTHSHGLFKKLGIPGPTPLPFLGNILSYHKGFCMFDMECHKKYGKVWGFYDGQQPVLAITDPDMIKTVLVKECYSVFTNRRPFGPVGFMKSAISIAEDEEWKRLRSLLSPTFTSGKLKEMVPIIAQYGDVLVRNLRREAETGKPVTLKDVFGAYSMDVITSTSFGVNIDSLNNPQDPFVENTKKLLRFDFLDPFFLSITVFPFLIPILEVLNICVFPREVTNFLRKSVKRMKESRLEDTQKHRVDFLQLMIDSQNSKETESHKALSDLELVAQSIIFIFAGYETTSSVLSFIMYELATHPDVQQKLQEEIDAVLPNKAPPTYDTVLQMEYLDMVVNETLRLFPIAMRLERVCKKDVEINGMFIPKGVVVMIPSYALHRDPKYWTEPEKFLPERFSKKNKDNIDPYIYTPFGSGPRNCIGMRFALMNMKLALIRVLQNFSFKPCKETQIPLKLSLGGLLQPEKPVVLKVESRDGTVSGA
# Excerpt: as §1
# [3] = system: CYP2J2; test: Intrinsic clearance assigned to CYP2J2; format: in vitro ADME; conditions: CYP2J2 arbitrarily assigned, true enzyme not known
# Excerpt: as §1
# [4] = target: T2, CYP3A4; test: Intrinsic clearance by CYP3A4; format: in vitro ADME
# Excerpt: For pediatric PK prediction, especially for children under the age of 2 years, the need to consider developmental changes in the expression of drug-metabolizing enzymes and the like, in addition to the changes in body size associated with growth, has been reported (C Wagner, P Zhao, Y Pan, V Hsu, J Grillo, S M Huang, V Sinha. Application of Physiologically Based Pharmacokinetic (PBPK) Modeling to Support Dose Selection: Report of an FDA Public Workshop on PBPK. CPT Pharmacometrics Syst Pharmacol. 2015 April; 4(4): 226-30).
# as §1
# To predict pediatric PK, the physiological information on Japanese adults was replaced with that on Japanese children. […] The inter-individual variability in blood concentration on this simulation was calculated based on Japanese demographic data (Japanese pediatric demographic data source from Japanese Ministry of Health, Labour, and Welfare. Available from: […]
# [5] = Intrinsic clearance, other HLM; format: in vitro ADME; conditions: human, human liver microsomes; PBPK input; read-out: CLint, HLMother
# Excerpt: as §1
# [6] = Vss after intravenous administration in healthy subjects (Morcos et al.); conditions: human, in vivo, 50 μg, 475 L normalized with 74.8 kg, read-out: Actual Vss
# [7] = Physicochemical input parameters of alectinib for PBPK model
# Excerpt: as §1
# [8] = Absorption parameters fitted to clinical PK profiles in Japanese adult patients (JP28927); format: in vivo
# Excerpt: It was then optimized using clinical trial results in Japanese adults as parameters related to the absorption process were incorporated into the model.
# [9] = Blood-to-plasma ratio and free fractions (PBPK input); format: in vitro ADME
# Excerpt: as §1
# [10] = system: CYP3A4; test: CYP3A4 induction; format: in vitro ADME; conditions: PBPK input
# Excerpt: as §1
# [11] = system: recurrent/refractory childhood cancers; conditions: IMT with ALK fusion gene, ALCL, neuroblastoma, other malignant solid tumors; cited from earlier work
# [12] = fitted, multiple p.o. with standard meal, 150 mg capsule, Japanese adult patients
Compound,Ki [1],Ki [2],"CLint, CYP2J2 [3]",Contribution of CYP3A4 to hepatic metabolic clearance [4],"CLint, CYP3A4 ([4]; PBPK input)",microsomal CLint [5],Vd [6],logP [7],pKa 1 ([7]; monoprotic base),QGUT ([8]; first-order absorption model (assumed)),"Fa [8, 12]","Lag time [8, 12]","ka [8, 12]",fuGut [9],CYP3A4 induction Indslope [10],Clinical efficacy in childhood cancers [11]
"CCc1cc2c(cc1N1CCC(N3CCOCC3)CC1)C(C)(C)c1[nH]c3cc(C#N)ccc3c1C2=O [alectinib, 9-ethyl-6,6-dimethyl-8-(4-morpholin-4-yl-piperidin-1-yl)-11-oxo-6,11-dihydro-5H-benzo[b]carbazole-3-carbonitrile]",0.147 µM,8.29 µM,285 μL/min/pmol of μL/min/pmol of isoform,about 40%,9.98 μL/min/pmol of μL/min/pmol of isoform,1710 µL/min/mg,6.35 L/kg,1.96,7.05,8.49 L/h,0.48,2.92 h,0.22 h⁻¹,0.01,3.52 µM⁻¹,–
C[C@@H](Oc1cc(-c2cnn(C3CCNCC3)c2)cnc1N)c1c(Cl)ccc(F)c1Cl [crizotinib],–,–,–,–,–,–,–,–,–,–,–,–,–,–,–,has clinical efficacy in these childhood cancers
